The values that follow come from patent publication US10126303B2, “Methods for identifying compounds as modulators of SLC38A9 interactions” (Whitehead Institute for Biomedical Research, priority 2014, dated 2018).

In brackets after ≈: the same amount, converted by molar mass.

Data set [1] has as its system mTORC1. As to the kind of experiment: Amino acid-induced activation of the mTORC1 pathway in SLC38A9-null HEK-293T cells (immunoblot). The class given is cell-based. The following applies: CRISPR/CAS9 knockout, starved 50 min, stimulated 10 min, range of concentrations. The procedure:
FIGS. 5A-SE depict the results of experiments arginine and related immunoblots depicting impairment of induced activation of the mTORC1 pathway. FIG. 5A depicts the time dependent uptake of [^3H]-arginine by proteoliposomes containing SCL38A9.1. FIG. SB, left panel, depicts the time course of [^3H]arginine uptake, given fixed [^3H]arginine (0.5 μM) and increasing concentrations of unlabeled arginine. FIG. 5B, right panel, depicts velocity, calculated from left panel, as a function of total arginine concentration. Data were fitted to the Michaelis-Menton equation. FIG. 5C depicts the time-dependent efflux of SLC38A9.1 proteoliposomes following 1.5 hr loading with 0.5 μM [^3H]arginine. FIG. 5D depicts the competition of 0.5 μM [^3H]arginine transport by SLC38A9.1 using 100 mM of indicated unlabeled amino acids. The error bars in FIGS. 5A-5D represent standard deviation derived from at least 3 measurements. […]
HEK-293T cells (750,000/well) were plated into 6 well dishes and transfected 16 hours later with 1 μg of pX459 expressing above guides using XtremeGene9. […] Clones were expanded and evaluated for knockout status by western analysis for SLC38A9. These clones were evaluated for amino acid response as described above.
(Immunoblotting shows a protein as a band on a membrane.)

Data set [2] has as its target T1, SLC38A9.1 (Homo sapiens, UniProt Q8NBW4).
T1 construct: made in house; host or cells: HEK-293T cells stably expressing FLAG-SLC38A9.1
T1 sequence (Q8NBW4 1-561): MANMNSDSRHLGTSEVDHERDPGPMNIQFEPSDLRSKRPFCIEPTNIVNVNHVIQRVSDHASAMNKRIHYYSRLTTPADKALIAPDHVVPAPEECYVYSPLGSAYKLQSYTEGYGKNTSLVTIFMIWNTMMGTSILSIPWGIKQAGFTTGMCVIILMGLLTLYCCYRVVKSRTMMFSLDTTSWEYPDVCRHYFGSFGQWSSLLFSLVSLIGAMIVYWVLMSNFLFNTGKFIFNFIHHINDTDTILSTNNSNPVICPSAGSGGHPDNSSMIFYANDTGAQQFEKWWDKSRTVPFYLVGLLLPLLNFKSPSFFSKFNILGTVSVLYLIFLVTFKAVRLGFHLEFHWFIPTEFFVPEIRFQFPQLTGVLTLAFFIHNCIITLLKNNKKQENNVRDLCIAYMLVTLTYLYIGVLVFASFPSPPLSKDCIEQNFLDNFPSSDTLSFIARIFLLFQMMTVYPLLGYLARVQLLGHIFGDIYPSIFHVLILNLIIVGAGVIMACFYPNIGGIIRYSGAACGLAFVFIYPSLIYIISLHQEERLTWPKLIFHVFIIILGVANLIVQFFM
As to the kind of experiment: Competition of [3H]arginine transport by SLC38A9.1 proteoliposomes using unlabeled amino acids. The data set is classed as biochemical. The note with it: 0.5 μM [3H]arginine; 100 mM unlabeled amino acid; 75 min. The procedure:
(§1) SLC38A9.1 proteoliposomes or liposome controls were centrifuged at 100,000 g for 30 min. in a TLA-100.3 rotor and resuspended in a smaller volume of outside buffer such that they could be added to a larger volume of 100 mM unlabeled amino acid (final concentration) supplemented with outside buffer components. […] At such high concentrations, it is important to adjust all amino acid solutions to pH 7.4. Assays were initiated by addition of 0.5 μM [^3H]arginine to the amino acid buffer solution followed by the addition of SLC38A9.1 proteoliposomes or liposome controls.
For steady-state kinetics experiments, time points were collected as described above and to assess substrate specificity, competition experiments were collected at 75 min. For efflux experiments, SLC38A9.1 proteoliposomes or liposome controls were loaded with [^3H]arginine as described above for an import assay for 1.5 hrs. To remove external amino acids, the reactions were applied to PD10 columns pre-equilibrated with outside buffer, and time points were collected as described above. Scintillation counts from liposome controls were subtracted from that of SLC38A9.1 proteoliposomes.

The nature of data set [3]: Solubility limit of amino acid in the transport assay solution. The data set is classed as physicochemical. The procedure: as §1
Substrate in data set [4]: N=C(N)NCCC[C@H](N)C(=O)O
As to the kind of experiment: Steady-state kinetics of [3H]arginine uptake by SLC38A9.1 proteoliposomes. The data set is classed as biochemical, human. The following applies: other: [3H]arginine 0.5 μM plus increasing unlabeled arginine, 30° C. The procedure: HEK-293T cells stably expressing FLAG-SLC38A9.1 were harvested as described above for immunoprecipitations, except cells were lysed in 40 mM HEPES pH 7.4, 0.5% Triton X-100, 1 mM DTT, and protease inhibitors. Following a 3 hr. immunoprecipitation, FLAG-affinity beads were washed twice for 5 min each in lysis buffer supplemented with 500 mM NaCl. Beads were equilibrated with inside buffer (20 mM MES pH 5, 90 mM KCl 10 mM NaCl) supplemented with 10% glycerol by washing them 5 times. FLAG-affinity purified SLC38A9.1 protein was eluted in glycerol-supplemented inside buffer containing 1 mg/mL FLAG peptide by rotation for 30 min. Protein was concentrated using Amicon centrifuge filters to about 1 mg/mL and snap-frozen in liquid nitrogen and stored at −80° C.
To form liposomes, chloroform-dissolved phosphatidylcholine (PC, 50 mg) was evaporated using dry nitrogen to yield a lipid film in a round bottom flask and desiccated overnight under vacuum. Lipids were hydrated in inside buffer at 50 mg/mL with light sonication in a water bath (Branson M2800H) and split into 100 μL aliquots in Eppendorf tubes. Aliquoted lipids were clarified using water bath sonication and recombined and extruded through a 100 nm membrane with 15 passes (Avanti 61000). […]

For `N=C(N)NCCC[C@H](N)C(=O)O` [arginine], the “activation of mTORC1 by the amino acid in SLC38A9 knockouts vs control cells” value in data set [1] is “strongly repressed at all arginine concentrations”.

Regarding `N[C@@H](Cc1c[nH]cn1)C(=O)O` [histidine], the “competition of radiolabelled arginine transport” value (“competition” below) in data set [2] was “competed radiolabelled arginine transport to similar degrees as arginine”. With `NCCCC[C@H](N)C(=O)O` [lysine], in data set [2], the “competition” value is on record as “competed radiolabelled arginine transport to similar degrees as arginine”. For `NCC(=O)O` [glycine], the “competition” value in data set [2] is “least effective competitor”.

Turning to `CC(C)C[C@H](N)C(=O)O` [leucine], in data set [2], the “competition” value was “modest effect”. In addition, the “activation of mTORC1 by the amino acid in SLC38A9 knockouts vs control cells” value in data set [1] was “only blunted”. In data set [3], the solubility (as a rule, how much of the substance goes into solution per volume) was about 130 mM (≈ 17.1 mg/mL).

B1: SLC38A9.1 (Homo sapiens) (protein)
chain: MANMNSDSRHLGTSEVDHERDPGPMNIQFEPSDLRSKRPFCIEPTNIVNVNHVIQRVSDHASAMNKRIHYYSRLTTPADKALIAPDHVVPAPEECYVYSPLGSAYKLQSYTEGYGKNTSLVTIFMIWNTMMGTSILSIPWGIKQAGFTTGMCVIILMGLLTLYCCYRVVKSRTMMFSLDTTSWEYPDVCRHYFGSFGQWSSLLFSLVSLIGAMIVYWVLMSNFLFNTGKFIFNFIHHINDTDTILSTNNSNPVICPSAGSGGHPDNSSMIFYANDTGAQQFEKWWDKSRTVPFYLVGLLLPLLNFKSPSFFSKFNILGTVSVLYLIFLVTFKAVRLGFHLEFHWFIPTEFFVPEIRFQFPQLTGVLTLAFFIHNCIITLLKNNKKQENNVRDLCIAYMLVTLTYLYIGVLVFASFPSPPLSKDCIEQNFLDNFPSSDTLSFIARIFLLFQMMTVYPLLGYLARVQLLGHIFGDIYPSIFHVLILNLIIVGAGVIMACFYPNIGGIIRYSGAACGLAFVFIYPSLIYIISLHQEERLTWPKLIFHVFIIILGVANLIVQFFM
notes: made in house; host or cells: HEK-293T cells stably expressing FLAG-SLC38A9.1
Take B1: in data set [4], the Km (as a rule, the concentration of substrate that gives half-maximal velocity) stood at 39 mM; the kcat – broadly, the number of substrate molecules converted per active site and unit of time at saturation – came to 0.03 s⁻¹.
